Measurements published in patent publication US9266869B2, “Substituted dialkyl(oxido)-lambda4-sulfanylidene nicotinamide derivatives as kinase inhibitors” (Allergan, Inc., priority 2013, dated 2016).

What was measured:
[1] = molecular target: VEGFR2 (KDR) (Homo sapiens (Human), UniProt P35968); experiment: VEGFR2 Kinase Assay; format: biochemical; settings: purified cytoplasmic domain KDR protein, 2.7 μM ATP; read-out: VEGFR2 Enzyme Assay (IC50 nM)
Method: VEGFR2 Kinase Assay Biochemical KDR kinase assays were performed in 96 well microtiter plates that were coated overnight with 75 μg/well of poly-Glu-[…]:1) in 10 mM Phosphate Buffered Saline (PBS), pH 7.4. […] Reactions were carried out in 100 μL reaction volumes containing 2.7 μM ATP in kinase buffer (50 mM Hepes buffer pH 7.4, 20 mM MgCl2, 0.1 mM MnCl2 and 0.2 mM Na3VO4). […] Reactions were initiated by the addition 20 ul per well of kinase buffer containing 200-300 ng purified cytoplasmic domain KDR protein (BPS Bioscience, San Diego, Calif.). Following a 15 minute incubation at 30° C., the reactions were washed 2 mls per well PBS-T. 100 μl of a monoclonal anti-phosphotyrosine antibody-peroxidase conjugate diluted 1:10,000 in PBS-T was added to the wells for 30 minutes. Following a 2 mls per well wash with PBS-Tween-20, 100 μl of 0-Phenylenediamine Dihydrochloride in phosphate-citrate buffer, containing urea hydrogen peroxide, was added to the wells for 7-10 minutes as a colorimetric substrate for the peroxidase. […] IC50 values for compound inhibition were calculated directly from graphs of optical density (arbitrary units) versus compound concentration following subtraction of blank values.

[2] = molecular target: VEGFR2 (Homo sapiens (Human), UniProt P35968); experiment: VEGFR2 Cellular Assay (VEGF induced intracellular calcium, FLIPR, HUVEC); format: cell-based; settings: VEGF165 stimulation (10 ng/mL)
Chain of VEGFR2 (P35968 20-1356): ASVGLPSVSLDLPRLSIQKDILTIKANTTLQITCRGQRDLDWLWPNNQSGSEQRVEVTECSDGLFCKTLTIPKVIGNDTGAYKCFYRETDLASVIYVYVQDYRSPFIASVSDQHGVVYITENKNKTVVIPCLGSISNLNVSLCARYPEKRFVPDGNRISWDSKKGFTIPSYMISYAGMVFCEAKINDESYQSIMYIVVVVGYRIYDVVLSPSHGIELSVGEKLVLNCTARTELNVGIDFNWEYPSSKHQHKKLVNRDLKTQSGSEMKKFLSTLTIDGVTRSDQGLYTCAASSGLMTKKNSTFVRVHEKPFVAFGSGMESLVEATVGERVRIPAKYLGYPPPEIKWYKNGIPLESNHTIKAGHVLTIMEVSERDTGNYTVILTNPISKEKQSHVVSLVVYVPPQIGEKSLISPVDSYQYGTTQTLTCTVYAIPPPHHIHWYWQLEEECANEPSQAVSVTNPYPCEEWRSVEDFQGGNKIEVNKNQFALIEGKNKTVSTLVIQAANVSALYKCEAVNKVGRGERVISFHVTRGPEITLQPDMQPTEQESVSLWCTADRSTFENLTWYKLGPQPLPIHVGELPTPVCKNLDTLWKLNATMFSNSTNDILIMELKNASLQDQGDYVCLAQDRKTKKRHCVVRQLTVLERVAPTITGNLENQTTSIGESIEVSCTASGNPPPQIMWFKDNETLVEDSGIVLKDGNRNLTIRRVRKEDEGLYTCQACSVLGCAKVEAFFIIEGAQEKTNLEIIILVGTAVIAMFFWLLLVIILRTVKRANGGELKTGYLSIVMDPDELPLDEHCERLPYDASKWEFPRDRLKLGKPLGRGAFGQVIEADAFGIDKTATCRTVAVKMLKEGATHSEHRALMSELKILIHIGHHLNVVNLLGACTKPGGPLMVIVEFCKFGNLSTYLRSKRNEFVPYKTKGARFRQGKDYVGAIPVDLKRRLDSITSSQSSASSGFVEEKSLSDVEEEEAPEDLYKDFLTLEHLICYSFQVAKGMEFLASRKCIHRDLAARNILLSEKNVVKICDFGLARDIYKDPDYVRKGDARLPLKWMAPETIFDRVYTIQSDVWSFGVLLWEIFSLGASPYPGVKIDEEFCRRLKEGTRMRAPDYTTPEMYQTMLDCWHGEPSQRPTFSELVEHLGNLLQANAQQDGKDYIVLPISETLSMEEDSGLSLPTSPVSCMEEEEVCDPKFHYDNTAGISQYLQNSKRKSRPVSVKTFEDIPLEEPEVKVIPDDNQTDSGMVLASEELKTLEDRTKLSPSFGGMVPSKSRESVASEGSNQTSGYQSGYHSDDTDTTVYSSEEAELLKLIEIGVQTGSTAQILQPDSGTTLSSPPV
Method: (§1) VEGFR2 Cellular Assay Automated FLIPR (Fluorometric Imaging Plate Reader) technology was used to screen for inhibitors of VEGF induced increases in intracellular calcium levels in fluorescent dye loaded endothelial cells. HUVEC (human umbilical vein endothelial cells) (Clonetics) were seeded in 384-well fibronectin coated black-walled plates overnight @ 37° C./5% CO2. Cells were loaded with calcium indicator Fluo-4 for 45 minutes at 37° C. Cells were washed 2 times (Elx405, Biotek Instruments) to remove extracellular dye. For screening, cells were pre-incubated with test agents for 30 minutes, at a single concentration (10 uM) or at concentrations ranging from 0.0001 to 10.0 uM followed by VEGF165 stimulation (10 ng/mL). Changes in fluorescence at 516 nm were measured simultaneously in all 384 wells using a cooled CCD camera. Data were generated by determining max-min fluorescence levels for unstimulated, stimulated, and drug treated samples. IC50 values for test compounds were calculated from % inhibition of VEGF stimulated responses in the absence of inhibitor.

[3] = molecular target: T1, PDGFRβ (Homo sapiens (Human), UniProt P09619); experiment: PDGFRβ Kinase Assay; format: biochemical; settings: purified cytoplasmic domain PDGFR-b protein, 36 μM ATP; read-out: PDGFRβ Enzyme Assay (IC50 nM)
Method: Biochemical PDGFRβ kinase assays were performed in 96 well microtiter plates that were coated overnight with 75 μg of poly-Glu-Tyr (4:1) in 10 mM Phosphate Buffered Saline (PBS), pH 7.4.
PBS-T prior to starting the reaction. Reactions were carried out in 100 μL reaction volumes containing 36 μM ATP in kinase buffer (50 mM Hepes buffer pH 7.4, 20 mM MgCl2, 0.1 mM MnCl2 and 0.2 mM Na3VO4). […] Reactions were initiated by the addition 20 ul per well of kinase buffer containing 200-300 ng purified cytoplasmic domain PDGFR-b protein (Millipore). Following a 60 minute incubation at 30° C., the reactions were washed 2 mls per well PBS-T. 100 μl of a monoclonal anti-phosphotyrosine antibody-peroxidase conjugate diluted 1:10,000 in PBS-T was added to the wells for 30 minutes. Following a 2 mls per well wash with PBS-Tween-20, 100 μl of O-Phenylenediamine Dihydrochloride in phosphate-citrate buffer, containing urea hydrogen peroxide, was added to the wells for 7-10 minutes as a colorimetric substrate for the peroxidase. […] IC50 values for compound inhibition were calculated directly from graphs of optical density (arbitrary units) versus compound concentration following subtraction of blank values.
Target sequence in this assay (P09619 554-1106): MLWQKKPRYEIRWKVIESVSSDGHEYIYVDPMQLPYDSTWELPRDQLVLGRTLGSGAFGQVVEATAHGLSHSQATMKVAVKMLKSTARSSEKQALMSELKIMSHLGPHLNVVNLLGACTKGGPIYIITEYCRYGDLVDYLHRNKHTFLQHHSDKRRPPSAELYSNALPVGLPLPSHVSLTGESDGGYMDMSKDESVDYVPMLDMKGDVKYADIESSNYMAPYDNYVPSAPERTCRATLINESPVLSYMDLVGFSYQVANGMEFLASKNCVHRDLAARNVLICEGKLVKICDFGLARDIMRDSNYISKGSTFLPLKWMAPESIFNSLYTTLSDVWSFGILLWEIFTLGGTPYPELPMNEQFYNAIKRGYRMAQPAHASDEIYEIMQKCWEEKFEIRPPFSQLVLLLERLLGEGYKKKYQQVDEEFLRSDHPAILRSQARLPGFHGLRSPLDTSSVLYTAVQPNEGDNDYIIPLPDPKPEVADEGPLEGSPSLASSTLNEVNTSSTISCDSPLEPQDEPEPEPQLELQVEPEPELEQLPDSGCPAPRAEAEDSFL

[4] = molecular target: T1, PDGFRβ; experiment: PDGFRβ Cellular Assay (PDGF-induced intracellular calcium, FLIPR, NHDF-Ad); format: cell-based; settings: PDGF-BB stimulation (30 ng/mL)
Method: as §1, with “Automated” for “VEGFR2 Cellular Assay Automated”, “of PDGF-induced” for “of VEGF induced”, “[…]. NHDF-Ad (Normal Human Dermal Fibroblasts, Adult; Lonza)” for “cells. HUVEC (human umbilical vein endothelial cells) (Clonetics)”, “by PDGF-BB” for “by VEGF165”, “stimulation (30” for “stimulation (10”, “of PDGF-BB” for “of VEGF”
Target sequence in this assay (P09619 33-1106): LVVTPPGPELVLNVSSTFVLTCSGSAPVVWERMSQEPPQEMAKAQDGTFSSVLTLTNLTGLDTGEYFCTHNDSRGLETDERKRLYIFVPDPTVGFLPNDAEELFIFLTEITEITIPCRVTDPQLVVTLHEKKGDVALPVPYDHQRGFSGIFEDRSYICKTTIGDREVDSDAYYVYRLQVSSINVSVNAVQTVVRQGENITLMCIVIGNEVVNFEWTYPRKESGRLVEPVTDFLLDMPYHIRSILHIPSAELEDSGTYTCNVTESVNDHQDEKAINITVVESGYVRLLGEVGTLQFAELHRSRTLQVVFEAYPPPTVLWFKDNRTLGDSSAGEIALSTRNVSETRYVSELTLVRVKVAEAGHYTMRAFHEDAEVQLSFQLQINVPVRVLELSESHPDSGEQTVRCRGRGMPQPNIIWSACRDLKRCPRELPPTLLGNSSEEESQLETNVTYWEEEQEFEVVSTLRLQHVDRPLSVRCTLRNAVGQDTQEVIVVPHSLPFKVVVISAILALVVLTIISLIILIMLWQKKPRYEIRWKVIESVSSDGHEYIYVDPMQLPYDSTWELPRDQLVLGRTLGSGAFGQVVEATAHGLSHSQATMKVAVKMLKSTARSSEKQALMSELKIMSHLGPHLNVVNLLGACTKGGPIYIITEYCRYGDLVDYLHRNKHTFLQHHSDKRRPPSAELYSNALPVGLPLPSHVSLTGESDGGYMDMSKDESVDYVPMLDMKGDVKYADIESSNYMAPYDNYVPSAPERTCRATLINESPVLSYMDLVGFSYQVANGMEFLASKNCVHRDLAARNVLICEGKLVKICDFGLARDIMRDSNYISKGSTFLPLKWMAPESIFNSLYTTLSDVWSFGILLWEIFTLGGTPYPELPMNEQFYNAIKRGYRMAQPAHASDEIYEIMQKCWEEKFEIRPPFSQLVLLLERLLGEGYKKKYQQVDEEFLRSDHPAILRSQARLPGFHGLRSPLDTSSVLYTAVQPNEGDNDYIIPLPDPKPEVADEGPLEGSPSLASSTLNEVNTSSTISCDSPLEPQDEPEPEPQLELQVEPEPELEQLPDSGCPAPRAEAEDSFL

[5] = tested on: VEGF permeability model; experiment: VEGF permeability model, intravitreal injection; format: in vivo; settings: dosed by intravitreal injection

Chain of VEGFR2 (KDR) (P35968 786-1356): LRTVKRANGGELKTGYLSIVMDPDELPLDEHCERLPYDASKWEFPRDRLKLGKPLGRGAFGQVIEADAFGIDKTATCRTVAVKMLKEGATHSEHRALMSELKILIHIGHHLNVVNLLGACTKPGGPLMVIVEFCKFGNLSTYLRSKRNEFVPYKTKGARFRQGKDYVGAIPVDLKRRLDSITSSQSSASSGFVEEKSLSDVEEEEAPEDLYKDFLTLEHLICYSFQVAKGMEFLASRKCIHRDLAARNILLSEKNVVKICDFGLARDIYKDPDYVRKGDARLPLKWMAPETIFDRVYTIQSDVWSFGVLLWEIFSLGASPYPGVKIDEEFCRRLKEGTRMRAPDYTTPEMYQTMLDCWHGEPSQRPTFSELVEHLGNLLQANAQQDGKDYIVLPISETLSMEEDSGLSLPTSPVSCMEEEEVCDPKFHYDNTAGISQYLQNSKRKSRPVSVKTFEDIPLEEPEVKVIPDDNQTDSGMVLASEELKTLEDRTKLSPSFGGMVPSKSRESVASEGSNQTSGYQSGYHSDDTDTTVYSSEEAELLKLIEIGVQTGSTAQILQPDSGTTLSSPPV

- IC50 [1]: 7 nM
- IC50 [2]: 2 nM
- IC50 [3]: 15 nM
- IC50 [4]: 13 nM
- in vivo efficacy in the VEGF permeability model [5]: good in vivo efficacy
Structure (SMILES): COC(=O)CCCCS(C)(=O)=NC(=O)c1cnc(N)c(C#Cc2cccc(C(=O)Nc3cccc(C)c3)c2)c1 (centres unmarked) [Example 34, Methyl 5-[N-({6-amino-5-[(3-{[(3-methylphenyl)amino]carbonyl}phenyl)ethynyl]pyridin-3-yl}carbonyl)-S-methylsulfonimidoyl]pentanoate]
